Conditions: Liquid

CN1CCCC1=O [N-methylpyrrolidone]
mass density [kg/m3]
Conditions | 288.15 K | 298.15 K | 308.15 K | 318.15 K
100 kPa | 1036.8 | 1028 | 1019.3 | 1011
500 kPa | 1036.9 | 1028.1 | 1019.5 | 1011.1
1000 kPa | 1037.2 | 1028.4 | 1019.8 | 1011.4
1500 kPa | 1037.4 | 1028.7 | 1020 | 1011.7
2000 kPa | 1037.7 | 1028.9 | 1020.3 | 1012.1
2500 kPa | 1037.9 | 1029.2 | 1020.6 | 1012.4
3000 kPa | 1038.2 | 1029.4 | 1020.9 | 1012.7
3500 kPa | 1038.4 | 1029.7 | 1021.1 | 1012.9
4000 kPa | 1038.7 | 1030 | 1021.4 | 1013.2
4500 kPa | 1038.9 | 1030.2 | 1021.6 | 1013.5
5000 kPa | 1039.2 | 1030.5 | 1021.8 | 1013.8
5500 kPa | 1039.4 | 1030.7 | 1022.2 | 1014
5900 kPa | – | 1031 | – | –
6000 kPa | 1039.6 | – | 1022.4 | 1014.4
6400 kPa | – | – | 1022.6 | –
6500 kPa | 1039.9 | 1031.3 | – | 1014.6
6900 kPa | – | 1031.5 | – | –
7000 kPa | 1040.2 | – | – | 1014.9
7100 kPa | – | – | 1023 | –
7500 kPa | 1040.4 | 1031.8 | 1023.1 | 1015.2
8000 kPa | 1040.7 | 1032 | – | 1015.5
8100 kPa | – | – | 1023.5 | –
8500 kPa | 1041 | 1032.3 | 1023.7 | 1015.8
9000 kPa | 1041.2 | 1032.5 | 1024 | 1016
9500 kPa | 1041.4 | – | 1024.3 | 1016.3
9600 kPa | – | 1032.9 | – | –
10000 kPa | 1041.7 | 1033.1 | 1024.6 | 1016.6
10400 kPa | – | – | 1024.8 | –
10500 kPa | 1042 | 1033.3 | – | 1016.9
11000 kPa | 1042.2 | 1033.6 | – | 1017.3
11100 kPa | – | – | 1025.1 | –
11400 kPa | – | – | – | 1017.6
11500 kPa | 1042.5 | 1033.8 | 1025.3 | –
12000 kPa | – | 1034.1 | 1025.5 | 1017.8
12100 kPa | 1042.7 | – | – | –
12500 kPa | 1042.9 | 1034.3 | 1025.8 | 1018
12900 kPa | – | – | – | 1018.3
13000 kPa | 1043.1 | 1034.6 | 1026 | –
13500 kPa | 1043.4 | 1034.8 | 1026.3 | 1018.5
14000 kPa | 1043.6 | 1035.1 | 1026.5 | 1018.8
14400 kPa | – | 1035.3 | – | –
14500 kPa | 1043.8 | – | 1026.8 | 1019.1
14900 kPa | – | 1035.5 | – | –
15000 kPa | 1044.1 | – | 1027 | 1019.4
15500 kPa | 1044.3 | 1035.8 | 1027.3 | 1019.7
16000 kPa | 1044.5 | 1036 | 1027.5 | 1019.9
16500 kPa | 1044.8 | 1036.3 | 1027.7 | 1020.2
17000 kPa | 1045 | 1036.5 | 1028 | 1020.4
17500 kPa | 1045.2 | 1036.7 | 1028.3 | 1020.7
17900 kPa | – | 1037 | – | –
18000 kPa | 1045.4 | – | 1028.5 | 1021
18500 kPa | – | 1037.2 | 1028.7 | 1021.3
18600 kPa | 1045.7 | – | – | –
19000 kPa | 1046 | 1037.4 | 1029 | 1021.5
19500 kPa | 1046.2 | 1037.7 | 1029.2 | –
19600 kPa | – | – | – | 1021.9
20000 kPa | 1046.4 | 1037.9 | 1029.4 | 1022
